From PubChem BioAssay AID330 (DTP/NCI, 2004)
Several values for one entry are separate records, joined by “and”; a condition that tells them apart may be missing. Identical values can stand only once. Inconclusive results and toxic doses are left out. The calls were made as follows: active = survival T/C of 150% or more; inactive = T/C below 125% in these data.

Tested on: P388 leukemia ip, CD2F1 mice, survival T/C
Assay: NCI In Vivo Anticancer Drug Screen. Data for tumor model P388 Leukemia (intraperitoneal) in CD2F1 (CDF1) mice
Conditions: endpoint: median survival time, higher = longer survival
Outline: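 Mice carrying the transplanted tumor received test compound or vehicle. Survival was recorded in each group, and the value is the treated-group measurement divided by that of the vehicle-treated control group.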

[1] = dose: 50.0 mg/kg/injection, schedule: Q01DX009 (ip), vehicle: Klucel (hydroxypropylcellulose) (HPC)
[2] = dose: 100.0 mg/kg/injection, schedule: Q01DX009 (ip), vehicle: Klucel (hydroxypropylcellulose) (HPC)
[3] = dose: 50.0 mg/kg/injection, schedule: Q01DX009 (ip), vehicle: saline with Tween-80
[4] = dose: 50.0 mg/kg/injection, schedule: Q01DX009 (ip), vehicle: saline
[5] = dose: 100.0 mg/kg/injection, schedule: Q01DX009 (ip), vehicle: saline
[6] = dose: 200.0 mg/kg/injection, schedule: Q01DX009 (ip), vehicle: saline
[7] = dose: 50.0 mg/kg/injection, schedule: Q01DX005 (ip), vehicle: saline with Tween-80
[8] = dose: 100.0 mg/kg/injection, schedule: Q01DX005 (ip), vehicle: saline with Tween-80
[9] = dose: 200.0 mg/kg/injection, schedule: Q01DX005 (ip), vehicle: saline with Tween-80
[10] = dose: 50.0 mg/kg/injection, schedule: Q01DX005 (ip), vehicle: Klucel (hydroxypropylcellulose) (HPC)
[11] = dose: 100.0 mg/kg/injection, schedule: Q01DX005 (ip), vehicle: Klucel (hydroxypropylcellulose) (HPC)
[12] = dose: 200.0 mg/kg/injection, schedule: Q01DX005 (ip), vehicle: Klucel (hydroxypropylcellulose) (HPC)

Measured: T/C

CN(C)c1ccc2c(Cl)cc(Cl)nc2c1
inactive: dose: 12.5 mg/kg/injection, schedule: Q01DX009 (ip), vehicle: Klucel (hydroxypropylcellulose) (HPC) 109 % of control | dose: 25.0 mg/kg/injection, schedule: Q01DX009 (ip), vehicle: Klucel (hydroxypropylcellulose) (HPC) 109 % of control | [1] 107 % of control | [2] 106 % of control | dose: 200.0 mg/kg/injection, schedule: Q01DX009 (ip), vehicle: Klucel (hydroxypropylcellulose) (HPC) 103 % of control | dose: 400.0 mg/kg/injection, schedule: Q01DX009 (ip), vehicle: Klucel (hydroxypropylcellulose) (HPC) 104 % of control

COc1ccc(C2OC23Cc2ccccc2C3=O)cc1OC (stereo not drawn)
inactive: [3] 109 % of control | dose: 100.0 mg/kg/injection, schedule: Q01DX009 (ip), vehicle: saline with Tween-80 100 % of control | dose: 200.0 mg/kg/injection, schedule: Q01DX009 (ip), vehicle: saline with Tween-80 88 % of control

CCC(C)(O)P(=O)(O)O (stereo not drawn)
inactive: [4] 98 % of control | [5] 98 % of control | [6] 95 % of control

COc1ccc2nccc(C(=O)CCC3CCN(C(=O)c4ccc([N+](=O)[O-])cc4)CC3C(Br)CBr)c2c1 (stereo not drawn)
inactive: dose: 100.0 mg/kg/injection, schedule: Q04DX002 (ip), vehicle: saline with Tween-80 108 % of control | dose: 200.0 mg/kg/injection, schedule: Q04DX002 (ip), vehicle: saline with Tween-80 105 % of control

FC(F)(F)c1ccc(-c2ccc(OCCN3CCCC3)cc2)cc1
inactive: dose: 12.5 mg/kg/injection, schedule: Q01DX009 (ip), vehicle: saline with Tween-80 86 % of control | dose: 25.0 mg/kg/injection, schedule: Q01DX009 (ip), vehicle: saline with Tween-80 86 % of control | [3] 86 % of control | dose: 50.0 mg/kg/injection, schedule: Q04DX003 (ip), vehicle: saline sonified 87 % of control

O=S(=O)(O)C(O)c1cccnc1 (stereo not drawn)
inactive: dose: 100.0 mg/kg/injection, schedule: Q01DX009 (ip), vehicle: saline sonified 100 % of control | dose: 200.0 mg/kg/injection, schedule: Q01DX009 (ip), vehicle: saline sonified 100 % of control | dose: 400.0 mg/kg/injection, schedule: Q01DX009 (ip), vehicle: saline sonified 100 % of control

CC(C)CC(NC(CCC(=O)O)C(=O)O)C(=O)O (stereo not drawn)
inactive: dose: 2.25 mg/kg/injection, schedule: Q01DX005 (ip), vehicle: saline 106 % of control | dose: 4.5 mg/kg/injection, schedule: Q01DX005 (ip), vehicle: saline 106 % of control | dose: 9.0 mg/kg/injection, schedule: Q01DX005 (ip), vehicle: saline 96 % of control | dose: 18.0 mg/kg/injection, schedule: Q01DX005 (ip), vehicle: saline 104 % of control

S=C=NP1(N=C=S)=NP(N=C=S)(N=C=S)=NP(N=C=S)(N=C=S)=NP(N=C=S)(N=C=S)=N1 (stereo not drawn)
inactive: dose: 12.5 mg/kg/injection, schedule: Q01DX005 (ip), vehicle: saline with Tween-80 100 % of control | dose: 25.0 mg/kg/injection, schedule: Q01DX005 (ip), vehicle: saline with Tween-80 99 % of control | [7] 104 % of control and 109 % of control | [8] 114 % of control

O=[N+]([O-])c1cc(Cl)c(Cl)cc1NS(=O)(=O)c1ccccc1
inactive: dose: 150.0 mg/kg/injection, schedule: Q01DX009 (ip), vehicle: saline with Tween-80 90 % of control | dose: 150.0 mg/kg/injection, schedule: Q04DX003 (ip), vehicle: saline with Tween-80 100 % of control | dose: 300.0 mg/kg/injection, schedule: Q01DX009 (ip), vehicle: saline with Tween-80 100 % of control | dose: 300.0 mg/kg/injection, schedule: Q04DX003 (ip), vehicle: saline with Tween-80 100 % of control | dose: 600.0 mg/kg/injection, schedule: Q04DX003 (ip), vehicle: saline with Tween-80 95 % of control

CCOC(=O)c1cnc2c(OC)ccc(OC)c2c1Cl
inactive: [7] 97 % of control | [8] 97 % of control | [9] 99 % of control

O=C1NCNC(=O)N1
inactive: dose: 12.5 mg/kg/injection, schedule: Q04DX003 (ip), vehicle: saline with Tween-80 100 % of control | dose: 25.0 mg/kg/injection, schedule: Q04DX003 (ip), vehicle: saline with Tween-80 98 % of control | dose: 50.0 mg/kg/injection, schedule: Q04DX003 (ip), vehicle: saline with Tween-80 101 % of control | dose: 100.0 mg/kg/injection, schedule: Q04DX003 (ip), vehicle: saline with Tween-80 98 % of control

CCOC(=O)c1cnc(SC)n(-c2ccc(Cl)cc2)c1=O
inactive: [10] 100 % of control | [11] 100 % of control | [12] 108 % of control

CC(C)(C)OC(=O)NC(Cc1cnc[nH]1)C(=O)O (stereo not drawn)
inactive: [10] 90 % of control | [11] 99 % of control | [12] 98 % of control

CCCCSc1nc2ccc(N=Cc3ccccc3O)cc2s1
inactive: [1] 103 % of control | [2] 99 % of control

[CH3][Sn]([CH3])([O]C(=O)c1ccccc1)[O]C(=O)c1ccccc1
inactive: [10] 107 % of control | [11] 108 % of control

COC(=O)C(Cl)Cc1cnc[nH]1 (stereo not drawn)
inactive: [4] 92 % of control | [5] 98 % of control | [6] 92 % of control

Nc1ccc(Nc2nc(Cl)nc(Nc3ccc(N)cc3)n2)cc1
inactive: [10] 98 % of control | [11] 90 % of control | [12] 90 % of control

COc1cc(/C=C2\NC(=S)N(c3ccccc3)C2=O)ccc1O
inactive: [7] 100 % of control and 109 % of control | [8] 100 % of control and 101 % of control and 86 % of control | [9] 100 % of control and 101 % of control and 86 % of control | dose: 400.0 mg/kg/injection, schedule: Q01DX005 (ip), vehicle: saline with Tween-80 99 % of control and 100 % of control and 104 % of control

C#CO[C@@H]1C[C@H](C)CCC1C(C)C (stereo partly drawn)
inactive: dose: 60.0 mg/kg/injection, schedule: Q01DX005 (ip), vehicle: saline with Tween-80 100 % of control | dose: 120.0 mg/kg/injection, schedule: Q01DX005 (ip), vehicle: saline with Tween-80 106 % of control

CC1CCC(C)N1CCCCN1C(C)CCC1C (stereo not drawn)
inactive: dose: 3.13 mg/kg/injection, schedule: Q01DX009 (ip), vehicle: saline 104 % of control and 97 % of control | dose: 6.25 mg/kg/injection, schedule: Q01DX009 (ip), vehicle: saline 100 % of control and 104 % of control | dose: 12.5 mg/kg/injection, schedule: Q01DX009 (ip), vehicle: saline 100 % of control and 106 % of control | dose: 25.0 mg/kg/injection, schedule: Q01DX009 (ip), vehicle: saline 96 % of control

COC(=O)C(=O)C(C(=O)c1ccncc1)c1nc2n(c1O)C(=N)N=N2 (stereo not drawn)
inactive: dose: 50.0 mg/kg/injection, schedule: Q01DX005 (ip), vehicle: saline 97 % of control | dose: 100.0 mg/kg/injection, schedule: Q01DX005 (ip), vehicle: saline 97 % of control | dose: 200.0 mg/kg/injection, schedule: Q01DX005 (ip), vehicle: saline 100 % of control

OC(c1cc(-c2cccc(Cl)c2)nc2ccccc12)C1CCCCN1 (stereo not drawn)
inactive: [10] 112 % of control | [11] 107 % of control

C1CC2OCC1O2 (stereo not drawn)
inactive: [4] 100 % of control | [5] 106 % of control | [6] 100 % of control

COc1ccc(S(=O)(=O)c2cnc(N/N=C/c3ccc([N+](=O)[O-])o3)nc2N)cc1
inactive: dose: 100.0 mg/kg/injection, schedule: Q01DX001 (ip), vehicle: saline 93 % of control | dose: 200.0 mg/kg/injection, schedule: Q01DX001 (ip), vehicle: saline 90 % of control | dose: 400.0 mg/kg/injection, schedule: Q01DX001 (ip), vehicle: saline 90 % of control

CSC(=O)/N=C(\N)NC(=O)c1ccccc1
inactive: [10] 95 % of control | [11] 94 % of control | [12] 92 % of control

COc1ccc2c(c1)C(=O)C=C(c1ccccc1)S2(=O)=O
inactive: dose: 60.0 mg/kg/injection, schedule: Q01DX005 (ip), vehicle: Klucel (hydroxypropylcellulose) (HPC) 110 % of control | dose: 120.0 mg/kg/injection, schedule: Q01DX005 (ip), vehicle: Klucel (hydroxypropylcellulose) (HPC) 110 % of control | dose: 240.0 mg/kg/injection, schedule: Q01DX005 (ip), vehicle: Klucel (hydroxypropylcellulose) (HPC) 117 % of control

O=c1c(-c2ccc3c(c2)OCO3)coc2c3c(ccc12)OCO3
inactive: dose: 8.0 mg/kg/injection, schedule: Q01DX005 (ip), vehicle: Klucel (hydroxypropylcellulose) (HPC) 93 % of control | dose: 16.0 mg/kg/injection, schedule: Q01DX005 (ip), vehicle: Klucel (hydroxypropylcellulose) (HPC) 100 % of control | dose: 32.0 mg/kg/injection, schedule: Q01DX005 (ip), vehicle: Klucel (hydroxypropylcellulose) (HPC) 94 % of control | dose: 64.0 mg/kg/injection, schedule: Q01DX005 (ip), vehicle: Klucel (hydroxypropylcellulose) (HPC) 88 % of control
